Data from patent US11584749B2, “Phosphor-tetrazine compound and use thereof” (Spark Biopharma, Inc., priority 2018, dated 2023).

What was measured:
[1] = Change in emission properties (quantum yield, excitation/emission maxima, fluorescence amplification) before and after reaction with TCO; assay type: physicochemical; conditions: for fluorescence amplification rate (on/off): before and after reaction with TCO; for fluorescence signal amplification efficiency after the reaction with TCO: long wavelength range, diethylamino group at R1
Protocol: (§1) In this test, the absorption spectrum was measured with a UV-VIS spectrophotometer UV-1650PC (Shimadzu), and the emission spectrum and motion data were measured using a Cary Eclipse Fluorescence spectrophotometer (Varian Associates), and the absolute quantum yield was measured with a QE-2000 (Otsuka Electronics).
The emission spectrum was compared when the maximum fluorescence intensity was reached before and after the reaction of the compound and TCO, and changes in fluorescence of the compounds of Examples 1 to 4 and Comparative Examples 1 to 4 were observed, and the results are shown in Table 1 below.
The emission spectrum was compared when the maximum fluorescence intensity was reached before and after the reaction of the compound and TCO, and changes in fluorescence of the compounds of Examples 1 and 4 and Comparative Examples 3 to 6 were observed, and the results are shown in Table 2 below, FIGS. 3 and 4.

[2] = Second rate constant of the reaction with TCO; assay type: physicochemical
Protocol: as §1

[3] = tested on: mitochondria (HeLa cells); assay: Fluorescence imaging of mitochondria in living HeLa cells pre-treated with TPP-TCO; assay type: cell-based, human
Protocol: (§2) The fluorescence imaging test was performed using a DeltaVision Elite imaging system of GE Healthcare, and an Olympus IX-71 microscope was used.
In order to confirm the fluorescence imaging of mitochondria in living cells, it was tested by the following method.
HeLa cells were incubated for 1 hour in the presence or absence of triphenylphosphonium (TPP)-TCO, and then HeLa cells were washed and treated with the compound of Example 5 or Example 6.
In addition, in order to confirm the selectivity of TPP-TCO and Example 5, and TPP-TCO and Example 6 for mitochondria, HeLa cells were treated with MitoTracker Deep Red, a mitochondria coloring dye, As a result, it was observed that the position of the fluorescence signal of MitoTracker Deep Red was consistent with that of Example 5 or Example 6.

[4] = tested on: microtubule (HeLa human cervical cancer cells); assay: Fluorescence bio-imaging of microtubule in fixed HeLa cells pre-treated with Docetaxel-TCO conjugate; assay type: cell-based
Protocol: as §2
Docetaxel-TCO conjugate (Dox-TCO) was used for fluorescence bio-imaging of microtubule. HeLa human cervical cancer cells were fixed, and cultured with Dox-TCO for 1 hour, and then washed with PBS.

Compound	λem maximum emission wavelength ([1]; Table 1)	λex largest excitation maxima at a given maximum emission wavelength ([1]; Table 1)	Φon absolute quantum yield after the reaction with TCO ([1]; Table 1)	Φoff absolute quantum yield before the reaction with TCO ([1]; Table 1)	λem maximum emission wavelength ([1]; Table 2)	λex largest excitation maxima at a given maximum emission wavelength ([1]; Table 2)	Φon absolute quantum yield after the reaction with TCO ([1]; Table 2)	Φoff absolute quantum yield before the reaction with TCO ([1]; Table 2)	fluorescence amplification rate (on/off) ([1]; Table 1)	K2 second rate constant value ([2]; Table 1, measured at 20° C.)	fluorescence amplification rate (on/off) ([1]; Table 2)	K2 second rate constant value ([2]; Table 2, measured at 20° C.)	fluorescence signal amplification efficiency after the reaction with TCO ([1]; Table 2)	position of fluorescence signal versus MitoTracker Deep Red ([3]; HeLa cells, TPP-TCO and compound)	fluorescence mitochondria image ([3]; living HeLa cells treated with TPP-TCO for 1 hour, then compound)	fluorescence expression intensity in the extracellular region ([3]; living HeLa cells treated with TPP-TCO, then compound)	fluorescence signal on addition to cells ([4]; fixed HeLa cells cultured with Dox-TCO for 1 hour, washed with PBS)	specificity of staining, immunofluorescence with α-tubulin antibody ([4]; fixed HeLa cells, Dox-TCO)
Cc1nnc(-c2ccc(CNC(=O)c3ccn4c5c(c(-c6ccccc6)c4c3)CN(CCCNC(=O)OC(C)(C)C)C5=O)cc2)nn1 [Comparative Example 3, tert-butyl (3-(7-((4-(6-methyl-1,2,4,5-tetrazin-3-yl)benzyl)carbamoyl)-3-oxo-9-phenyl-1,3-dihydro-2H-pyrrolo[3,4-b]indolizin-2-yl)propyl)carbamate]	493 nm	375 nm	0.616	0.012	493 nm	375 nm	0.616	0.012	67	15 m^−1s^−1	67	15 m^−1s^−1	–	–	–	–	–	–
CC(=O)c1ccn2c3c(c(-c4ccccc4)c2c1)CN(CCCNC(=O)CCC(=O)NCc1ccc(-c2nnc(C)nn2)cc1)C3=O [Comparative Example 4, N^1-(3-(7-acetyl-3-oxo-9-phenyl-1,3-dihydro-2H-pyrrolo[3,4-b]indolizin-2-yl)propyl)-N^4-(4-(6-methyl-1,2,4,5-tetrazin-3-yl)benzyl)succinimide]	530 nm	401 nm	0.325	0.017	530 nm	401 nm	0.325	0.017	24	8.5 m^−1s^−1	24	8.5 m^−1s^−1	–	–	–	–	–	–
CCN(CC)c1ccc(-c2c3c(n4ccc(C(=O)NCc5ccc(-c6nnc(C)nn6)cc5)cc24)C(=O)N(CCCNC(=O)OC(C)(C)C)C3)cc1 [Comparative Example 5, tert-butyl (3-(9-(4-(diethylamino)phenyl)-7-((4-(6-methyl-1,2,4,5-tetrazin-3-yl)benzyl)carbamoyl)-3-oxo-1,3-dihydro-2H-pyrrolo[3,4-b]indolizin-2-yl)propyl)carbamate]	–	–	–	–	608 nm	418 nm	0.016	0.005	–	–	30	15 m^−1s^−1	significantly reduced	–	–	–	–	–
Cc1nnc(-c2ccn3c4c(c(-c5ccccc5)c3c2)CN(CCCNC(=O)OC(C)(C)C)C4=O)nn1 [Example 1, tert-butyl (3-(7-(6-methyl-1,2,4,5-tetrazin-3-yl)-3-oxo-9-phenyl-1,3-dihydro-2H-pyrrolo[3,4-b]indolizin-2-yl)propyl)carbamate]	484 nm	375 nm	0.683	0.002	484 nm	375 nm	0.683	0.002	>1,000	24 m^−1s^−1	>1,000	24 m^−1s^−1	excellent	–	–	–	–	–
CCN(CC)c1ccc(-c2c3c(n4ccc(-c5nnc(C)nn5)cc24)C(=O)N(CCCNC(=O)OC(C)(C)C)C3)cc1 [Example 4, tert-butyl (3-(9-(4-(diethylamino)phenyl)-7-(6-methyl-1,2,4,5-tetrazin-3-yl)-3-oxo-1,3-dihydro-2H-pyrrolo[3,4-b]indolizin-2-yl)propyl)carbamate]	581 nm	401 nm	0.045	0.001	581 nm	401 nm	0.045	0.001	>600	22 m^−1s^−1	>600	22 m^−1s^−1	excellent	–	–	–	–	–
Cc1nnc(-c2ccn3c4c(c(-c5ccccc5)c3c2)CN(CCCN2CCN(CCC(=O)O)CC2)C4=O)nn1 [Example 5, 3-(4-(3-(7-(6-methyl-1,2,4,5-tetrazin-3-yl)-3-oxo-9-phenyl-1,3-dihydro-2H-pyrrolo[3,4-b]indolizin-2-yl)propyl)piperazin-1-yl)propanoic acid]	–	–	–	–	–	–	–	–	–	–	–	–	–	consistent	a clear fluorescence mitochondria image was observed	0	a bright fluorescence signal was generated	microtubule specific staining

Second part, led by results:

λem maximum emission wavelength ([1]; Table 1)	λex largest excitation maxima at a given maximum emission wavelength ([1]; Table 1)	Φon absolute quantum yield after the reaction with TCO ([1]; Table 1)	Φoff absolute quantum yield before the reaction with TCO ([1]; Table 1)	λem maximum emission wavelength ([1]; Table 2)	λex largest excitation maxima at a given maximum emission wavelength ([1]; Table 2)	Φon absolute quantum yield after the reaction with TCO ([1]; Table 2)	Φoff absolute quantum yield before the reaction with TCO ([1]; Table 2)	Compound	fluorescence amplification rate (on/off) ([1]; Table 1)	K2 second rate constant value ([2]; Table 1, measured at 20° C.)	fluorescence amplification rate (on/off) ([1]; Table 2)	K2 second rate constant value ([2]; Table 2, measured at 20° C.)	fluorescence signal amplification efficiency after the reaction with TCO ([1]; Table 2)	position of fluorescence signal versus MitoTracker Deep Red ([3]; HeLa cells, TPP-TCO and compound)	fluorescence mitochondria image ([3]; living HeLa cells treated with TPP-TCO for 1 hour, then compound)	fluorescence expression intensity in the extracellular region ([3]; living HeLa cells treated with TPP-TCO, then compound)	fluorescence signal on addition to cells ([4]; fixed HeLa cells cultured with Dox-TCO for 1 hour, washed with PBS)	specificity of staining, immunofluorescence with α-tubulin antibody ([4]; fixed HeLa cells, Dox-TCO)
532 nm	416 nm	0.168	0.011	–	–	–	–	CC(=O)c1ccn2c3c(c(-c4ccc(-c5nnc(C)nn5)cc4)c2c1)CN(CCCNC(=O)OC(C)(C)C)C3=O [Comparative Example 1, tert-butyl (3-(7-acetyl-9-(4-(6-methyl-1,2,4,5-tetrazin-3-yl)phenyl)-3-oxo-1,3-dihydro-2H-pyrrolo[3,4-b]indolizin-2-yl)propyl)carbamate]	20	21 m^−1s^−1	–	–	–	–	–	–	–	–
522 nm	401 nm	0.583	0.042	–	–	–	–	CC(=O)c1ccn2c3c(c(-c4ccc(C(=O)NCc5ccc(-c6nnc(C)nn6)cc5)cc4)c2c1)CN(CCCNC(=O)OC(C)(C)C)C3=O [Comparative Example 2, tert-butyl (3-(7-acetyl-9-(4-((4-(6-methyl-1,2,4,5-tetrazin-3-yl)benzyl)carbamoyl)phenyl)-3-oxo-1,3-dihydro-2H-pyrrolo[3,4-b]indolizin-2-yl)propyl)carbamate]	14	15 m^−1s^−1	–	–	–	–	–	–	–	–
–	–	–	–	625 nm	438 nm	0.028	0.013	CCN(CC)c1ccc(-c2c3c(n4ccc(C(C)=O)cc24)C(=O)N(CCCNC(=O)CCC(=O)NCc2ccc(-c4nnc(C)nn4)cc2)C3)cc1 [Comparative Example 6, N^1-(3-(7-acetyl-9-(4-(diethylamino)phenyl)-3-oxo-1,3-dihydro-2H-pyrrolo[3,4-b]indolizin-2-yl)propyl)-N^4-(4-(6-methyl-1,2,4,5-tetrazin-3-yl)benzyl)succinimide]	–	–	3	1.2 m^−1s^−1	significantly reduced	–	–	–	–	–
505 nm	383 nm	0.485	0.001	–	–	–	–	COc1ccc(-c2c3c(n4ccc(-c5nnc(C)nn5)cc24)C(=O)N(CCCNC(=O)OC(C)(C)C)C3)cc1 [Example 2, tert-butyl (3-(9-(4-methoxyphenyl)-7-(6-methyl-1,2,4,5-tetrazin-3-yl)-3-oxo-1,3-dihydro-2H-pyrrolo[3,4-b]indolizin-2-yl)propyl)carbamate]	>1,000	23 m^−1s^−1	–	–	–	–	–	–	–	–
562 nm	390 nm	0.064	0.002	–	–	–	–	Cc1nnc(-c2ccn3c4c(c(-c5ccc(N)cc5)c3c2)CN(CCCNC(=O)OC(C)(C)C)C4=O)nn1 [Example 3, tert-butyl (3-(9-(4-aminophenyl)-7-(6-methyl-1,2,4,5-tetrazin-3-yl)-3-oxo-1,3-dihydro-2H-pyrrolo[3,4-b]indolizin-2-yl)propyl)carbamate]	>600	22 m^−1s^−1	–	–	–	–	–	–	–	–
